We go through one substance from patent publication US20260345510A1, “MEMBRANE COATED NANOPARTICLES FOR DRUG DELIVERY” (Arizona Board Regents on Behalf of Arizona State University, priority 2022, published 2026).

The subject of this assay is PL-induced carotid atherosclerosis in the LCA. Nature of the assay: Plaque development in partially ligated LCA (long-term experiment). It counts as in vivo, mouse (ApoE−/−). The note with it: free drug counterpart, repeated doses, without photoactivation. The source says: All animal experiments performed in this study have been approved by the Institutional Animal Care and Use Committee (IACUC) of Arizona State University, USA. Male ApoE^−/− mice (8-12 weeks old), purchased from The Jackson Laboratory, were subjected to the partial ligation (PL) procedure to induce inflammation and carotid atherosclerosis in the left carotid artery (LCA). All mice were fed a high-fat diet (Envigo #TD.88137) for 1 week prior to the PL procedure and continued to be fed the same diet until the time of euthanasia. […] For biodistribution analysis, MoNP-DiD was administered via retro-orbital injection to mice that underwent the PL 1 week prior. The arterial tissue (from carotid bifurcation to abdominal aorta) and organs were harvested 4 hours after the injection, and DiD intensity was quantified for each of the three individual zones within the arterial segments using fluorescent imaging. Subsequently, the left common CA was embedded in Tissue-Tek O.C.T. compound, cryosectioned, and stained with a CD31 antibody (R&D Systems #AF3628) and DAPI. For organ assessment, various tissues (kidney, lung, heart, gut, liver, and spleen) and plasma were homogenized, and the fluorescent intensity in homogenized tissues was measured. […] Serum samples isolated from the mice were analyzed to determine their lipid profile and metabolic panel. […]

For Verteporfin [free VP], the plaque sizes entry is given as “little-to-no effect on plaque sizes”.
